According to ChEMBL document CHEMBL6115038, “Immunoproteasome as a Target for Prodrugs” (J Med Chem, 2025):
One block for each compound: values may come before it. The source made the active and inactive calls. The calls are words filed in the database; no cut-off is given here. Peptide text beside a SMILES is read from it. * marks the point of attachment. Doxorubicin(3'-N) = COc1cccc2c1C(=O)c1c(O)c3c(c(O)c1C2=O)C[C@@](O)(C(=O)CO)C[C@@H]3O[C@H]1C[C@H](N*)[C@H](O)[C@H](C)O1; Morpholinoacetyl = O=C(CN1CCOCC1)*

Columns and labels:
[1] = molecular target: T1, von Hippel-Lindau disease tumor suppressor/Bromodomain-containing protein 4 (Homo sapiens) (UniProt O60885+P40337); test: PROTAC activity at BRD4/VHL in human Ramos cells expressing iCP assessed as induction of BRD4 degradation at 1 nM compound administered as prodrug-PROTAC incubated for 18 hrs by immunoblotting analysis; assay type: cell-based
[2] = tested on: Ramos; test: Cytotoxicity against human Ramos cells assessed as cell viability incubated for 24 hrs by celltiter-glo assay; assay type: functional, cell-based
[3] = Prodrug release in tris HCL buffer assessed as human 20S proteasome core particle-mediated hydrolysis by measuring Dox release measured for 4 hrs in presence of PA28alpha/beta activated complex by mass spectrometry analysis; assay type: ADME
[4] = Prodrug release in tris HCL buffer assessed as human 20S proteasome core particle-mediated hydrolysis by measuring Dox release measured for 4 hrs by mass spectrometry analysis; assay type: ADME
[5] = tested on: 20S proteasome; test: Prodrug release in tris HCL buffer at pH 7.4 assessed as human 20S immunoproteasome mediated hydrolysis by measuring Dox release at 10 uM incubated for 4 hrs in presence of 37.5 to 75 nM of PA28alpha/beta activated complex by mass spectrometry analysis; assay type: ADME, protein-complex assay; settings: pH 7.4, 4 h
[6] = tested on: 20S proteasome; test: Prodrug release in tris HCL buffer assessed as human 20S immunoproteasome-mediated hydrolysis by measuring Dox release measured upto 8 hrs by mass spectrometry analysis; assay type: ADME, protein-complex assay
[7] = molecular target: T1, von Hippel-Lindau disease tumor suppressor/Bromodomain-containing protein 4 (Homo sapiens); test: PROTAC activity at BRD4/VHL in human Ramos cells expressing iCP assessed as induction of BRD4 degradation at 100 nM compound administered as prodrug-PROTAC incubated for 18 hrs in presence of ONX-0914 by immunoblotting analysis; assay type: cell-based
[8] = Cytotoxicity against human AC16 [Human hybrid] cells expressing iCP assessed as cell viability incubated for 24 hrs by celltiter-glo assay; assay type: toxicity, cell-based
[9] = tested on: 20S proteasome; test: Prodrug release in tris HCL buffer at pH 7.4 assessed as human 20S immunoproteasome mediated hydrolysis by measuring Dox release at 10 uM incubated for 4 hrs in presence of PA28alpha/beta activated complex by mass spectrometry analysis; assay type: ADME, protein-complex assay; settings: pH 7.4, 4 h
[10] = tested on: 20S proteasome; test: Prodrug release in tris HCL buffer at pH 7.4 assessed as human 20S immunoproteasome mediated hydrolysis by measuring Dox release at 10 uM incubated for 90 mins in presence of PA28alpha/beta activated complex by fluorescence based analysis; assay type: ADME, protein-complex assay; settings: pH 7.4, 1.5 h
[11] = Cytotoxicity against human AC16 [Human hybrid] cells assessed as cell viability at 10 uM incubated for 72 hrs by celltiter-glo assay relative to control; assay type: toxicity, cell-based; settings: read-out: Activity
[12] = tested on: Raji; test: Cytotoxicity against human Raji cells assessed as cell viability at 0.0001 to 100 uM incubated for 72 hrs by celltiter-glo assay; assay type: functional, cell-based; settings: dose 0.0001-100 µM
[13] = Cytotoxicity against human AC16 [Human hybrid] cells assessed as cell viability at 20 uM incubated for 72 hrs by celltiter-glo assay relative to control; assay type: toxicity, cell-based; settings: read-out: Activity
[14] = tested on: MM.1R; test: Cytotoxicity against human MM1.R cells assessed as cell viability at 0.0001 to 100 uM incubated for 72 hrs by celltiter-glo assay; assay type: functional, cell-based; settings: dose 0.0001-100 µM
[15] = tested on: Ramos; test: Cytotoxicity against human Ramos cells assessed as cell viability incubated for 72 hrs by celltiter-glo assay; assay type: functional, cell-based
[16] = Stability in human serum incubated for 1 hr by mass spectrometry analysis; assay type: ADME, cell-free
[17] = Cytotoxicity against human AC16 [Human hybrid] cells assessed as cell viability incubated for 72 hrs by celltiter-glo assay; assay type: toxicity, cell-based

T1 sequence (P40337 whole entry, looked up, other chains not shown): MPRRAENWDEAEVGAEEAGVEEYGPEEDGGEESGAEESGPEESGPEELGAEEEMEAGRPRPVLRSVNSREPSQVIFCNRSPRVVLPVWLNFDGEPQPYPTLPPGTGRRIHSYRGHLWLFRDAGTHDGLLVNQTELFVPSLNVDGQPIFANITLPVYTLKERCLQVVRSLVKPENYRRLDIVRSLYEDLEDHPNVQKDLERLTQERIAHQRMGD

Activity [1]: Active
SMILES: Cc1ncsc1-c1ccc([C@H](C)NC(=O)[C@@H]2C[C@@H](O)CN2C(=O)[C@@H](NC(=O)COCCCOCCNC(=O)C[C@@H]2N=C(c3ccc(Cl)cc3)c3c(sc(C)c3C)-n3c(C)nnc32)C(C)(C)C)cc1
IC50 [2]: 10 nM

Drug metabolism [3]: metabolite_detected
Drug metabolism [4]: metabolite_notdetected
Drug metabolism [5]: metabolite_notdetected
Drug metabolism [6]: metabolite_detected
SMILES: COc1cccc2c1C(=O)c1c(O)c3c(c(O)c1C2=O)C[C@@](O)(C(=O)CO)C[C@@H]3O[C@H]1C[C@H](NC(=O)[C@H](Cc2ccc(O)cc2)NC(=O)[C@@H](NC(=O)[C@H](CC(C)C)NC(=O)[C@H](CC(C)C)NC(C)=O)C(C)C)[C@H](O)[C@H](C)O1 (Ac-LLVY-{Doxorubicin(3'-N)})

Drug metabolism [5]: metabolite_notdetected
Drug metabolism [6]: metabolite_detected
SMILES: COc1cccc2c1C(=O)c1c(O)c3c(c(O)c1C2=O)C[C@@](O)(C(=O)CO)C[C@@H]3O[C@H]1C[C@H](NC(=O)[C@H](C)NC(=O)[C@H](C)NC(=O)[C@H](C)NC(=O)[C@H](C)NC(C)=O)[C@H](O)[C@H](C)O1 (Ac-AAAA-{Doxorubicin(3'-N)})

SMILES: CSCC[C@H](NC(=O)[C@@H](NC(=O)[C@H](C)NC(=O)CN1CCOCC1)[C@@H](C)O)C(=O)N[C@@H](Cc1c[nH]c2ccccc12)C(=O)Nc1ccc(COC(=O)O[C@H]2C[C@H](C(=O)N[C@@H](C)c3ccc(-c4scnc4C)cc3)N(C(=O)[C@@H](NC(=O)COCCCOCCNC(=O)C[C@@H]3N=C(c4ccc(Cl)cc4)c4c(sc(C)c4C)-n4c(C)nnc43)C(C)(C)C)C2)cc1
Activity [7]: inactive
Activity [1]: Active
IC50 [2]: 10 nM
Activity [8]: Toxic

Drug metabolism [9]: metabolite_detected
Drug metabolism [10]: metabolite_detected
Drug metabolism [6]: metabolite_detected
SMILES: COc1cccc2c1C(=O)c1c(O)c3c(c(O)c1C2=O)C[C@@](O)(C(=O)CO)C[C@@H]3O[C@H]1C[C@H](NC(=O)[C@H](Cc2c[nH]c3ccccc23)NC(=O)[C@H](CCSC)NC(=O)[C@@H](NC(=O)[C@H](C)NC(C)=O)[C@@H](C)O)[C@H](O)[C@H](C)O1 (Ac-ATMW-{Doxorubicin(3'-N)})

SMILES: COc1cccc2c1C(=O)c1c(O)c3c(c(O)c1C2=O)C[C@@](O)(C(=O)CO)C[C@@H]3O[C@H]1C[C@H](NC(C)=O)[C@H](O)[C@H](C)O1
viability at 72 h, 10 µM [11]: > 90%

Stability [16]: Stable
SMILES: COc1cccc2c1C(=O)c1c(O)c3c(c(O)c1C2=O)C[C@@](O)(C(=O)CO)C[C@@H]3O[C@H]1C[C@H](NC(=O)[C@H](Cc2c[nH]c3ccccc23)NC(=O)[C@H](CCSC)NC(=O)[C@@H](NC(=O)[C@H](C)NC(=O)CN2CCOCC2)[C@@H](C)O)[C@H](O)[C@H](C)O1 (Morpholinoacetyl-ATMW-{Doxorubicin(3'-N)})
Activity [12]: Active
viability at 72 h, 20 µM [13]: > 80%
Activity [14]: Active
IC50 [15]: 5500 nM

SMILES: COc1cccc2c1C(=O)c1c(O)c3c(c(O)c1C2=O)C[C@@](O)(C(=O)CO)C[C@@H]3O[C@H]1C[C@H](N)[C@H](O)[C@H](C)O1 [DOXORUBICIN]
IC50 at 72 h [17]: 233 nM
